Test results: patent US7803801B2, “Aminopyridine compounds having Syk inhibitory activity” (Japan Tobacco, Inc., priority 2005, dated 2010)
Structures can show the parent of a compound that is named as a salt.

biological target: GST-Syk Full Protein (human) (Homo sapiens, UniProt P43405); test: Syk kinase inhibition test (HTRF method); assay type: biochemical; details: HTRF, 100 μM ATP, 30 min room temperature, average; read-out: sykHTRF ave IC50
Method: Syk Kinase Inhibition Test (HTRF Method)
After the compounds were serially diluted with dimethylsulfoxide (DMSO), 10 μL of those 10-fold diluted with kinase buffer (20 mM HEPES pH 7.0, 10 mM MgCl2, 50 mM NaCl, 1 mM 2-ME, 0.05% BSA) was added to opti-plate HTRF-96 (Packard) (final DMSO concentration: 2%). 20 μL of a substrate solution (kinase buffer as mentioned above containing Syk Specific-Peptide Substrate Biot-EDPDYEWPSA-NH2 (Peptide Laboratory) 625 nM, 250 μM ATP (SIGMA) was added (final substrate concentration 250 nM, 100 μM ATP), and further 20 μL of an enzyme solution (kinase buffer as mentioned above containing GST-Syk Full Protein (human) 16 nM) (final concentration 6.4 nM) was added and the mixture was immediately stirred with a plate shaker to start enzyme reaction. After reacted at room temperature (20 to 25° C.) for 30 minutes, the enzyme reaction was terminated by adding 100 μL/well of a buffer for terminating and detecting the reaction (30 mM HEPES pH 7.0, 150 mM KF, 0.15% BSA, 0.075% Tween-20, 75 mM EDTA) containing HTRF reagent (5 μg/ml XL665-Streptavidin (CIS bio), 170 ng/ml Eu(K)-anti-PhosphoTyrosin, PT-66 (CIS bio)) (final concentration 20 mM HEPES pH 7.0, 100 mM KF, 0.1% BSA, 0.05% Tween-20, 50 mM EDTA). After allowed to stand still at room temperature for 1 hour, inhibitory effect of a compound against Syk kinase enzymatic activity was evaluated by measuring 665/620 fluorescence ratio to excitation light at 337 nm by ARVO (Wallac).

Row | IC50 [nM] | SMILES
1 | > 1000 | CC(=O)N[C@@H](C)c1nc(C(=O)O)c(-c2cccc(Nc3cc(C)ccn3)n2)s1 [Compound A-109]
2 | 100 to 1000 | Cc1ccnc(Nc2cccc(-c3cnc(CCc4cccc(C(=O)N5CCC(O)CC5)c4)s3)n2)c1 [Compound A-281]
3 | > 1000 | Cc1ccnc(Nc2cccc(-c3cnc(CCc4ccc(OCc5ccccc5)cc4)s3)n2)c1 [Compound A-133]

same assay, conditions: Tables 1-x, compounds A; read-out: sykHTRF ave IC50

Row | IC50 [nM] | SMILES
4 | 100 to 1000 | Cc1ccnc(Nc2cccc(-c3cnc(N(CCO)C4CCCCC4)s3)n2)c1 [Compound A-673]
5 | < 100 | C=CCN(CC=C)c1ncc(-c2cccc(Nc3cc(C)ccn3)n2)s1 [Compound A-507, N,N-diallyl-N-{5-[6-(4-methylpyridin-2-ylamino)pyridin-2-yl]thiazol-2-yl}amine]
6 | < 100 | Cc1ccnc(Nc2cccc(-c3cnc(N(Cc4ccccc4)C[C@H]4CC[C@H](C(=O)O)CC4)s3)n2)c1 [Compound A-622, trans-4-[(N-benzyl-N-{5-[6-(4-methylpyridin-2-ylamino)pyridin-2-yl]thiazol-2-yl}amino)methyl]cyclohexanecarboxylic acid]
7 | < 100 | CCc1ccnc(Nc2cccc(-c3cnc(N4CCC(CC(=O)O)CC4)s3)n2)c1 [Compound A-692, (1-{5-[6-(4-ethylpyridin-2-ylamino)pyridin-2-yl]thiazol-2-yl}piperidin-4-yl)acetic acid dihydrochloride]
8 | < 100 | Cc1ccnc(Nc2cccc(-c3cnc(N(C)CCC/C=C/C(=O)O)s3)n2)c1 [Compound A-640, (E)-6-(N-methyl-N-{5-[6-(4-methylpyridin-2-ylamino)pyridin-2-yl]thiazol-2-yl}amino)hex-2-enoic acid dihydrochloride]
9 | < 100 | CC(C)c1ccnc(Nc2cccc(-c3cnc(N4CCC(CC(=O)O)CC4)s3)n2)c1 [Compound A-711, (1-{5-[6-(4-isopropylpyridin-2-ylamino)pyridin-2-yl]thiazol-2-yl}piperidin-4-yl)acetic acid dihydrochloride]
10 | 100 to 1000 | Cc1ccnc(Nc2cccc(-c3cnc(N(C)C4CCN(C(=O)C(C)(C)C)CC4)s3)n2)c1 [Compound A-671]
11 | 100 to 1000 | CNC(=O)C(C)(C)NC(=O)C1CCN(c2ncc(-c3cccc(Nc4cc(C)ccn4)n3)s2)CC1 [Compound A-491]
12 | < 100 | CN(c1ncc(-c2cccc(Nc3cc(C(F)(F)F)ccn3)n2)s1)[C@H]1CC[C@H](C(=O)O)CC1 [Compound A-638, trans-4-(N-methyl-N-{5-[6-(4-trifluoromethylpyridin-2-ylamino)pyridin-2-yl]thiazol-2-yl}amino)cyclohexanecarboxylic acid]

Further lines, the compound ahead of its results:

Row | SMILES | IC50 [nM]
13 | Cc1ccnc(Nc2cccc(-c3cnc(N4CCN(CC(=O)N(C)C)C(=O)C4)s3)n2)c1 [Compound A-467] | 100 to 1000
14 | CN(Cc1ccc(CC(=O)O)cc1)c1ncc(-c2cccc(Nc3cc(C(F)(F)F)ccn3)n2)s1 [Compound A-651, {4-[(N-methyl-N-{5-[6-(4-trifluoromethylpyridin-2-ylamino)pyridin-2-yl]thiazol-2-yl}amino)methyl]phenyl}acetic acid] | < 100
15 | O=C(O)CC1CCN(c2ncc(-c3cccc(Nc4cnccn4)n3)s2)CC1 [Compound A-680, (1-{5-[6-(pyrazin-2-ylamino)pyridin-2-yl]thiazol-2-yl}piperidin-4-yl)acetic acid] | < 100
16 | Cc1ccnc(Nc2cccc(-c3cnc(N(CC(N)=O)C(C)C)s3)n2)c1 [Compound A-663, 2-(N-isopropyl-N-{5-[6-(4-methylpyridin-2-ylamino)pyridin-2-yl]thiazol-2-yl}amino)acetamide] | < 100
17 | Cc1ccnc(Nc2cccc(-c3cnc(NCCc4ccccc4)s3)n2)c1 [Compound A-701] | 100 to 1000
18 | CNC(=O)C(C(C)C)N(C)c1ncc(-c2cccc(Nc3cc(C)ccn3)n2)s1 (stereo not drawn) [Compound A-674] | 100 to 1000
19 | Cc1ccnc(Nc2cccc(-c3cnc(N(C)C4CCN(C(=O)C5CC5)CC4)s3)n2)c1 [Compound A-512] | 100 to 1000
20 | Cc1ccnc(Nc2cccc(-c3cnc(N4CCC(C(=O)NC(C)(C)CO)CC4)s3)n2)c1 [Compound A-455] | 100 to 1000
21 | Cc1ccnc(Nc2cccc(-c3cnc(N4CCC[C@H]4C(=O)NS(C)(=O)=O)s3)n2)c1 [Compound A-646] | 100 to 1000
22 | Cc1ccnc(Nc2cccc(-c3cnc(N(Cc4ccccc4)[C@H]4CC[C@H](CC(=O)O)CC4)s3)n2)c1 [Compound A-624, [trans-4-(N-benzyl-N-{5-[6-(4-methylpyridin-2-ylamino)pyridin-2-yl]thiazol-2-yl}amino)cyclohexyl]acetic acid] | < 100
23 | Cc1ccnc(Nc2cccc(-c3cnc(N(C)C4CCN(C(=O)N(C)C)CC4)s3)n2)c1 [Compound A-511, N,N-dimethyl-4-(N′-methyl-N′-{5-[6-(4-methylpyridin-2-ylamino)pyridin-2-yl]thiazol-2-yl}amino)piperidine-1-carboxamide] | < 100
24 | Cc1ccnc(Nc2cccc(-c3cnc(N(CCCCC(=O)O)C(C)C)s3)n2)c1 [Compound A-643, 5-(N-isopropyl-N-{5-[6-(4-methylpyridin-2-ylamino)pyridin-2-yl]thiazol-2-yl}amino)pentanoic acid] | < 100
25 | Cc1ccnc(Nc2cccc(-c3cnc(N4CCN(CC(=O)NCCO)C(=O)C4)s3)n2)c1 [Compound A-468, N-(2-hydroxyethyl)-2-(4-{5-[6-(4-methylpyridin-2-ylamino)pyridin-2-yl]thiazol-2-yl}-2-oxopiperazin-1-yl)acetamide] | < 100
26 | CC(=O)N(Cc1ccc(C(=O)O)cc1)Cc1ncc(-c2cccc(Nc3cc(C)ccn3)n2)s1 [Compound A-709, 4-[(N-acetyl-N-{5-[6-(4-methylpyridin-2-ylamino)pyridin-2-yl]thiazol-2-ylmethyl}amino)methyl]benzoic acid] | < 100
27 | O=C(O)C(F)C1CCN(c2ncc(-c3cccc(Nc4cnccn4)n3)s2)CC1 (stereo not drawn) [Compound A-715, fluoro-(1-{5-[6-(pyrazin-2-ylamino)pyridin-2-yl]thiazol-2-yl}piperidin-4-yl)acetic acid dihydrochloride] | < 100
28 | Cc1ccnc(Nc2cccc(-c3cnc(N(C)CC(=O)O)s3)n2)c1 [Compound A-555] | 100 to 1000

same assay, conditions: Tables 2-x, thiophene compounds B; read-out: sykHTRK ave IC50

Row | IC50 [nM] | SMILES
29 | 100 to 1000 | Cc1ccnc(Nc2cccc(-c3ccc(COc4ccc(C(=O)O)cc4)s3)n2)c1 [Compound B-105]
30 | < 100 | Cc1ccnc(Nc2cccc(-c3ccc(C(O)C(F)(F)C(=O)O)s3)n2)c1 (stereo not drawn) [Compound B-109, 2,2-difluoro-3-hydroxy-3-{5-[6-(4-methylpyridin-2-ylamino)pyridin-2-yl]thiophen-2-yl}propionic acid]
31 | < 100 | Cc1ccnc(Nc2cccc(-c3ccc(CN(Cc4ccc(C(=O)O)cc4)C(=O)C(C)C)s3)n2)c1 [Compound B-127, 4-[(N-isobutyryl-N-{5-[6-(4-methylpyridin-2-ylamino)pyridin-2-yl]thiophen-2-ylmethyl}amino)methyl]benzoic acid]
32 | 100 to 1000 | Cc1ccnc(Nc2cccc(-c3ccc(CN4CCc5cc(C(=O)O)ccc5C4)s3)n2)c1 [Compound B-107]
33 | < 100 | Cc1ccnc(Nc2cccc(-c3ccc(CN(Cc4ccc(C(=O)O)cc4)C(=O)CO)s3)n2)c1 [Compound B-128, 4-[(N-(2-hydroxyacetyl)-N-{5-[6-(4-methylpyridin-2-ylamino)pyridin-2-yl]thiophen-2-ylmethyl}amino)methyl]benzoic acid]
